Test results from US20200339544A1 (JOINT STOCK COMPANY "BIOCAD", priority 2017, published 2020).
Where two headings read alike, the source gives them in different places. Marks after values point to notes of the source that are not given here.

Columns and labels:
[1] = system: HCC827 (lung adenocarcinoma, SM, exon19delE746-A750); assay: Antiproliferative activity on HCC827 cells (Alamar Blue); format: cell-based; conditions: Homo sapiens, antiproliferative test
In short: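 HCC827 cells (EGFR exon19del E746-A750), 10×10^3/well, attached 16–18 h, then exposed to compounds for 72 h at 37 °C in RPMI-1640 with 2% FBS, ≤1% DMSO. Viability by Alamar Blue fluorescence (ex 540/em 590 nm) after 3–5 h; IC50 by four-parameter logistic fit.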

[2] = system: A549 (lung adenocarcinoma, WT); assay: Antiproliferative activity on A549 cells (Alamar Blue); format: cell-based; conditions: Homo sapiens, antiproliferative test
In short: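 Cells seeded at 5*10^3/well in RPMI-1640 with 2% FBS, attached 16-18 h at 37° C, then exposed to compounds (≤1% DMSO) for 72 h. Alamar Blue added for 3-5 h; fluorescence read at 540/590 nm. IC50 from four-parameter logistic fit.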

[3] = Chemical stability in simulated gastric fluid (SGF); format: physicochemical; conditions: SGF without enzymes, pH 1,4; 10 μm; 2 hours at 37° C.; substance amount remaining
In short: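 Compound at 10 μm (diluted from 10 mM DMSO stock) incubated 2 h at 37° C in enzyme-free SGF, pH=1,4, or enzyme-free SIF, pH=6.5. HPLC peak areas before and after incubation give % compound remaining.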

[4] = system: H1975 (lung adenocarcinoma, DM, L828R/T790M); assay: Antiproliferative activity on H1975 cells (Alamar Blue); format: cell-based; conditions: for IC50: Homo sapiens, NCI-H1975, H1975 cells; for SI IC50(A549)/IC50(DM): selectivity index, A549 vs H1975 cells
In short: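 H1975 cells (15*10^3/well) attached 16-18 h in RPMI-1640 with 2% FBS, then exposed to compounds (≤1% DMSO final) for 72 h at 37 °C. Viability by Alamar Blue fluorescence (Ex 540/Em 590 nm) after 3-5 h; IC50 from four-parameter logistic fit.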

[5] = molecular target: T1, WT EGFR (Wild-Type EGFR) (Homo sapiens, UniProt P00533); assay: Inhibition of WT EGFR kinase activity (ADP-Glo); format: biochemical
T1 construct: purchased SignalChem
T1 sequence (P00533 25-1210): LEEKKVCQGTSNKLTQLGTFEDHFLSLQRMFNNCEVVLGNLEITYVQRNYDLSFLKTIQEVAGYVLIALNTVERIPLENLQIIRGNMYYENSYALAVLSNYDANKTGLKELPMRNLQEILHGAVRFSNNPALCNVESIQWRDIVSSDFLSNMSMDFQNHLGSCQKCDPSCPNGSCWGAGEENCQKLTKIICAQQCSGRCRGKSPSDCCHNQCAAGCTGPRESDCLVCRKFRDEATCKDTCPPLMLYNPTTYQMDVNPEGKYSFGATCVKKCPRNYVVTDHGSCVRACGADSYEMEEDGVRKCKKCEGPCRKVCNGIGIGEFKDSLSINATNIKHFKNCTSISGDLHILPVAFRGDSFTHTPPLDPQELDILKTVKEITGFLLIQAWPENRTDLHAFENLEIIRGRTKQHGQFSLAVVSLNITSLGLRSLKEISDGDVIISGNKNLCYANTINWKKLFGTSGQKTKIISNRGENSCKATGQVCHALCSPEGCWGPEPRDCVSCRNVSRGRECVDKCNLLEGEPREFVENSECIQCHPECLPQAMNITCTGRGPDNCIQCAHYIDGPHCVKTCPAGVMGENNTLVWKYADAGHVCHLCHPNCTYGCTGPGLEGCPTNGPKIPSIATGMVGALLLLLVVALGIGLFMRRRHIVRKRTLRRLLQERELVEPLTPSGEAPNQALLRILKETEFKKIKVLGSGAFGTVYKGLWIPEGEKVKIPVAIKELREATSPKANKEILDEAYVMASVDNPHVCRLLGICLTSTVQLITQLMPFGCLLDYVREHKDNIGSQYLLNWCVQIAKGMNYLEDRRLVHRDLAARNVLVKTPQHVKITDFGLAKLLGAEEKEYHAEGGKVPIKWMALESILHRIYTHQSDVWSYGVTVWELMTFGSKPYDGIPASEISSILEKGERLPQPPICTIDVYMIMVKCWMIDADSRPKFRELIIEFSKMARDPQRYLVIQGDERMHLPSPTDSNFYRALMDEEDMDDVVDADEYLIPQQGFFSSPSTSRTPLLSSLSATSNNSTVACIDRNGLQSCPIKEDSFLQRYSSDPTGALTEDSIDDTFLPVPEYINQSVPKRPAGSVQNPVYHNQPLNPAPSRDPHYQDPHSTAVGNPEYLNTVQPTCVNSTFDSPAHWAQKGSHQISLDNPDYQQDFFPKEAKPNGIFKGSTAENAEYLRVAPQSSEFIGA
In short: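 Recombinant WT or double-mutant EGFR was incubated with a solution of 0.5 mg/mL peptide substrate and 50 μM ATP for 180 minutes at 37° C. Kinase activity was detected by ADP-Glo luminescence. IC50 values came from a four-parameter logistic fit.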

[6] = average values obtained in several tests, Table 16, read-out: H1975 (DM) IC50
[7] = antiproliferative test, Table 15, read-out: IC50 H1975 (DM)

IC50 [1] [µM] | IC50 [2] [µM] | Stability in SGF, % [3] [%] | IC50 [4, 6] [µM] | IC50 [4, 7] [µM] | IC50 [5] [µM] | SMILES | SI IC50(A549)/IC50(DM) [4]
0.0299 | 4.54 | 99.8 | 0.0292 | 0.0292 | 0.121 | C=CC(=O)Nc1cc(Nc2cc(C(=O)c3ccc(N4CCCC4)cc3)ccn2)c(OC)cc1N(C)CCN(C)C [EGFR_3365_56, N-(2-((2-(dimethylamino)ethyl)(methyl)amino)-4-methoxy-5-((4-(4-(pyrrolidin-1-yl)benzoyl)pyridin-2-yl)amino)phenyl)acrylamide] | 156
0.0143 | > 10 | 100.0 | 0.0601 | 0.0601 | 0.587 | C=CC(=O)Nc1cc(Nc2nccc(C(=O)c3ccccc3C(F)(F)F)n2)c(OC)cc1N(C)CCN(C)C [EGFR_3365, N-(2-((2-(dimethylamino)ethyl) (methyl)amino)-4-methoxy-5-((4-(2-(trifluoromethyl)benzoyl)pyrimidin-2-yl)amino)phenyl)acrylamide] | >166**
0.00447 | 16 | 100.0 | 0.0095 | 0.0103 | 0.0327 | C=CC(=O)Nc1cc(Nc2nccc(C(=O)c3ccc(N(C)C)cc3)n2)c(OC)cc1N(C)CCN(C)C [EGFR_3365_73, N-(5-((4-(4-(dimethylamino)benzoyl)pyrimidin-2-yl)amino)-2-((2-(dimethylamino)ethyl) (methyl)amino)-4-methoxyphenyl)acrylamide] | 1678
0.0191 | 8.14 | 100.0 | 0.0346 | 0.0346 | 0.0939 | C=CC(=O)Nc1cc(Nc2nccc(C(=O)c3ccc(OCC)cc3OCC)n2)c(OC)cc1N(C)CCN(C)C [EGFR_3365_68, N-(5-((4-(2,4-diethoxybenzoyl)pyrimidin-2-yl)amino)-2-((2-(dimethylamino)ethyl) (methyl)amino)-4-methoxyphenyl)acrylamide] | 235
0.0135 | 10.7 | 100.0 | 0.0115 | 0.0115 | 0.0559 | C=CC(=O)Nc1cc(Nc2nccc(C(=O)c3ccc(N(CC)CC)cc3)n2)c(OC)cc1N(C)CCN(C)C [EGFR_3365_72, N-(5-((4-(4-(diethylamino)benzoyl)pyrimidin-2-yl)amino)-2-((2-(dimethylamino)ethyl)(methyl)amino)-4-methoxyphenyl)acrylamide] | 932
0.0266 | 8.23 | 100.0 | 0.0449 | 0.0449 | 0.183 | C=CC(=O)Nc1cc(Nc2cc(C(=O)c3ccc(N4CC(OC)C4)cc3)ccn2)c(OC)cc1N(C)CCN(C)C (racemic) [EGFR_3365_53, N-(2-((2-(dimethylamino)ethyl)(methyl)amino)-4-methoxy-5-((4-(4-(3-methoxyazetidin-1-yl)benzoyl)pyridin-2-yl)amino)phenyl)acrylamide] | 183
0.0062 | 16 | 98.1 | 0.0269 | 0.0269 | 0.202 | C=CC(=O)Nc1cc(Nc2nccc(C(=O)c3ccc(OCC)cc3)n2)c(OC)cc1N(C)CCN(C)C [EGFR_3365_29, N-(2-((2-(dimethylamino)ethyl)(methyl)amino)-5-((4-(4-ethoxybenzoyl)pyrimidin-2-yl)amino)-4-methoxyphenyl) acrylamide] | 595.06
0.0083 | 11.1 | 100.0 | 0.00734 | 0.0073 | 0.131 | C=CC(=O)Nc1cc(Nc2nccc(C(=O)c3ccc(OC(C)C)cc3)n2)c(OC)cc1N(C)CCN(C)C [EGFR_3365_31, N-(2-((2-(dimethylamino)ethyl)(methyl)amino)-5-((4-(4-isopropoxybenzoyl)pyrimidin-2-yl)amino)-4-methoxyphenyl) acrylamide] | 1509.19
0.0086 | 11.5 | 100.0 | 0.0338 | 0.0338 | 0.0508 | C=CC(=O)Nc1cc(Nc2cc(C(=O)c3ccc(OC)cc3)ccn2)c(OC)cc1N(C)CCN(C)C [EGFR_3365_51, N-(2-((2-(dimethylamino)ethyl)(methyl)amino)-4-methoxy-5-((4-(4-methoxybenzoyl)pyridin-2-yl)amino)phenyl)acrylamide] | 340
0.0413 | 2.39 | 100.0 | 0.393 | 0.394 | 0.171 | C=CC(=O)Nc1cc(Nc2nccc(C(=O)c3ccc(Oc4ccccc4)cc3)n2)c(OC)cc1N(C)CCN(C)C [EGFR_3365_17, N-(2-((2-(dimethylamino)ethyl)(methyl)amino)-4-methoxy-5-((4-(4-phenoxybenzoyl)pyrimidin-2-yl)amino)phenyl)acrylamide] | 6.08
0.0153 | 3.64 | 100.0 | 0.0171 | 0.0171 | 0.128 | C=CC(=O)Nc1cc(Nc2nccc(C(=O)c3ccc(OC)cc3)n2)c(OC)cc1N(C)CCN(C)C [EGFR_3365_28, N-(2-((2-(dimethylamino)ethyl)(methyl)amino)-4-methoxy-5-((4-(4-methoxybenzoyl)pyrimidin-2-yl)amino)phenyl)acrylamide] | 213.04
0.00577 | 23.4 | 100.0 | 0.0081 | 0.00812 | 0.0531 | C=CC(=O)Nc1cc(Nc2nccc(C(=O)c3ccc(N4CC(OC)C4)cc3)n2)c(OC)cc1N(C)CCN(C)C [EGFR_3365_61, N-(2-((2-(dimethylamino)ethyl)(methyl)amino)-4-methoxy-5-((4-(4-(3-methoxyazetidin-1-yl)benzoyl)pyrimidin-2-yl)amino)phenyl)acrylamide] | 2884
0.0203 | 15.4 | 100.0 | 0.0215 | 0.0215 | 0.389 | C=CC(=O)Nc1cc(Nc2nccc(C(=O)c3ccccc3Br)n2)c(OC)cc1N(C)CCN(C)C [EGFR_3365_12, N-(5-((4-(2-bromobenzoyl)pyrimidin-2-yl)amino)-2-((2-(dimethylamino)ethyl) (methyl)amino)-4-methoxyphenyl)acrylamide] | 716.20
0.018 | 1.41 | 100.0 | 0.138 | 0.138 | 0.06 | C=CC(=O)Nc1cc(Nc2cc(C(=O)c3ccc(-c4cnn(C)c4)cc3)ccn2)c(OC)cc1N(C)CCN(C)C [EGFR_3365_85, N-(2-((2-(dimethylamino)ethyl)(methyl)amino)-4-methoxy-5-((4-(4-(1-methyl-1H-pyrazol-4-yl)benzoyl)pyridin-2-yl)amino)phenyl) acrylamide] | 10
0.0368 | 4.39 | 100.0 | 0.203 | 0.203 | 0.25 | C=CC(=O)Nc1cc(Nc2nccc(C(=O)c3ccc(OCCC)cc3OCCC)n2)c(OC)cc1N(C)CCN(C)C [EGFR_3365_70, N-(2-((2-(dimethylamino)ethyl)(methyl)amino)-5-((4-(2,4-dipropoxybenzoyl)pyrimidin-2-yl)amino)-4-methoxyphenyl)acrylamide] | 22
